The text below walks through data of article PMC5669819 (Molecular cancer therapeutics, 2017).

As a reminder, the IC50 is the point on the concentration scale where inhibition reaches its midpoint.

The structures appear in SMILES notation.

For experiment [1], the target named is PI3Kα (Homo sapiens, UniProt P42336). Description: Adapta TR-FRET lipid kinase assay with purified enzyme. The format is biochemical.
Experiment [2] deals with MEK1 (Homo sapiens, UniProt Q02750). It is filed as biochemical.
MEK1, sequence (Q02750 whole entry): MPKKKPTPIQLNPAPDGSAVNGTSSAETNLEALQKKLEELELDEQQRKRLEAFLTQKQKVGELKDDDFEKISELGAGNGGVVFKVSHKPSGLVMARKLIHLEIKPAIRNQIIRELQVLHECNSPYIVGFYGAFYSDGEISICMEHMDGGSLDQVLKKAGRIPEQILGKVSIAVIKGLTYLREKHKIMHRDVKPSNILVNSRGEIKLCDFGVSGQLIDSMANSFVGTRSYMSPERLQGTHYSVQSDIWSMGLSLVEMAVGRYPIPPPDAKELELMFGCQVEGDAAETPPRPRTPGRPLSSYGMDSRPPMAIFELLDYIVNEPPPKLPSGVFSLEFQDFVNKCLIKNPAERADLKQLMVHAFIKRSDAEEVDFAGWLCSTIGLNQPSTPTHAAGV

PI3Kα, sequence (P42336 whole entry): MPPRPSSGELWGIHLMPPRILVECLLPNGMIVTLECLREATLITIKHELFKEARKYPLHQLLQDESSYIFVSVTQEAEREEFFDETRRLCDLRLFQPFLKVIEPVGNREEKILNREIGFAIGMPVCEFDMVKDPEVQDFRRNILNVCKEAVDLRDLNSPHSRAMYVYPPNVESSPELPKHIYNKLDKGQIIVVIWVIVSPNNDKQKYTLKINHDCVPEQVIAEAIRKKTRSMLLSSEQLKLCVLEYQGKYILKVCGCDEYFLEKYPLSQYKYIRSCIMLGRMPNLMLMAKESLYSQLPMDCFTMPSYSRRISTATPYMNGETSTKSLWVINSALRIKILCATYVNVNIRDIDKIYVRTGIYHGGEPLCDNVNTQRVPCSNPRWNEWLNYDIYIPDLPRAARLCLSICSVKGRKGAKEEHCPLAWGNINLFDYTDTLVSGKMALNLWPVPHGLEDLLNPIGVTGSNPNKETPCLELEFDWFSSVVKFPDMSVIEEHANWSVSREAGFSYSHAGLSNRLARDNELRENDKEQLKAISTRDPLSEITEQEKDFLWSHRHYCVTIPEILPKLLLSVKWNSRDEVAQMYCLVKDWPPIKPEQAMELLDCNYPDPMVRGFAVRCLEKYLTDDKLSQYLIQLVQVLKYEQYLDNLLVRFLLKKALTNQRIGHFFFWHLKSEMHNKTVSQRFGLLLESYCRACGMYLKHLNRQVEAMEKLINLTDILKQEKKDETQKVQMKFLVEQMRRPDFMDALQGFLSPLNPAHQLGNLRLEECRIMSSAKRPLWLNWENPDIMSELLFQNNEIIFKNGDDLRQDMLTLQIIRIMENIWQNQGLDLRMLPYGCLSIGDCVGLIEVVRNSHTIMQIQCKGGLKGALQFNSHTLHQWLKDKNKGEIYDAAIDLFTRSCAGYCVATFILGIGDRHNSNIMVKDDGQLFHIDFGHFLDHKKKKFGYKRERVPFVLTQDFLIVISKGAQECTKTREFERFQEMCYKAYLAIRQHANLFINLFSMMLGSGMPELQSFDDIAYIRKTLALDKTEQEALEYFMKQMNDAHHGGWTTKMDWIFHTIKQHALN
PI3Kα, sequence (P27986 2-724 partner): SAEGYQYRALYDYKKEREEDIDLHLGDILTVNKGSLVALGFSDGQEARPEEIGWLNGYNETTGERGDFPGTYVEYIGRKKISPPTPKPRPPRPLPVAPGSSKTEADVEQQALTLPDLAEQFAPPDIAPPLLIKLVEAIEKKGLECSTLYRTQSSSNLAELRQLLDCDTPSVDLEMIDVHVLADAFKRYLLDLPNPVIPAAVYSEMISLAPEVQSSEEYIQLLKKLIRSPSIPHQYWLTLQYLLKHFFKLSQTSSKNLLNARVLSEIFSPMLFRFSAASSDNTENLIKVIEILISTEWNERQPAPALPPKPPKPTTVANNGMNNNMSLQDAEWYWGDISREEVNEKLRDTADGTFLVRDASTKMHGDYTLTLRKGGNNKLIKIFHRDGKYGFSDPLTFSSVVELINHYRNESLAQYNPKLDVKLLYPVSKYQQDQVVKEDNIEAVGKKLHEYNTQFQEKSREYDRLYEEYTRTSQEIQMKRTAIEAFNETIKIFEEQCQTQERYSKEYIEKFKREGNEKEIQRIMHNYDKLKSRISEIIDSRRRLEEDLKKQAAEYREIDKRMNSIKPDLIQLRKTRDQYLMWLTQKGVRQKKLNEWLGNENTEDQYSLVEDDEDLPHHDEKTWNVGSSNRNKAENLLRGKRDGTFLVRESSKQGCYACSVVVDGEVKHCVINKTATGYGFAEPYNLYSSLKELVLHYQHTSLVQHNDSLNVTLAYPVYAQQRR

As to `O=C(NOCCOCCOCCOCCN1CCN(c2nc(N3CCOCC3)nc(-n3c(C(F)F)nc4ccccc43)n2)CC1)c1ccc(F)c(F)c1Nc1ccc(I)cc1F` [ST-162], the IC50 amounted to 191 nM in experiment [1] and 398 nM in experiment [2].
